In ChEMBL document CHEMBL3045518, “Synthesis of novel 3-[5-ethyl-2-(2-phenoxy-ethyl)-pyridin]-5-substituted isoxazoline libraries via 1,3-dipolar cycloaddition and evaluation of antimicrobial activities” (2006):
Converted amounts (≈) assume the structure as drawn.

Assays:
Type in all cases: functional
Penicillium sp. [1] = experiment: Antifungal activity against Penicillium sp. at 25 ug/disk after 48 hr by disk diffusion method; conditions: for zone of inhibition at 25 µg/disc: read-out: DIZ
Fusarium verticillioides [2] = experiment: Antifungal activity against Fusarium verticillioides at 25 ug/disk after 48 hr by disk diffusion method; conditions: for zone of inhibition at 25 µg/disc: read-out: DIZ
Trichoderma [3] = experiment: Antifungal activity against Trichoderma sp. at 25 ug/disk after 48 hr by disk diffusion method; conditions: for zone of inhibition at 25 µg/disc: read-out: DIZ
Fusarium oxysporum [4] = experiment: Antifungal activity against Fusarium oxysporum at 25 ug/disk after 48 hr by disk diffusion method; conditions: for zone of inhibition at 25 µg/disc: read-out: DIZ
Aspergillus flavus [5] = experiment: Antifungal activity against Aspergillus flavus at 25 ug/disk after 48 hr by disk diffusion method; conditions: for zone of inhibition at 25 µg/disc: read-out: DIZ
Aspergillus niger [6] = experiment: Antifungal activity against Aspergillus niger at 25 ug/disk after 48 hr by disk diffusion method; conditions: for zone of inhibition at 25 µg/disc: read-out: DIZ
Xanthomonas oryzae [7] = experiment: Antibacterial activity against Xanthomonas oryzae at 25 ug/disk after 24 hr by disk diffusion method; conditions: read-out: DIZ
[8] = tested on: Xanthomonas euvesicatoria pv. sesami; experiment: Antibacterial activity against Xanthomonas campestris pv. sesami at 25 ug/disk after 24 hr by disk diffusion method; conditions: read-out: DIZ
Pseudomonas fluorescens [9] = experiment: Antibacterial activity against Pseudomonas fluorescens at 25 ug/disk after 24 hr by disk diffusion method; conditions: read-out: DIZ
Escherichia coli [10] = experiment: Antibacterial activity against Escherichia coli at 25 ug/disk after 24 hr by disk diffusion method; conditions: read-out: DIZ
Bacillus subtilis [11] = experiment: Antibacterial activity against Bacillus subtilis at 25 ug/disk after 24 hr by disk diffusion method; conditions: read-out: DIZ
Penicillium sp. [12] = experiment: Antifungal activity against Penicillium sp. after 48 hr by microdilution method
Fusarium verticillioides [13] = experiment: Antifungal activity against Fusarium verticillioides after 48 hr by microdilution method
Trichoderma [14] = experiment: Antifungal activity against Trichoderma sp. after 48 hr by microdilution method
Aspergillus flavus [15] = experiment: Antifungal activity against Aspergillus flavus after 48 hr by microdilution method
Fusarium oxysporum [16] = experiment: Antifungal activity against Fusarium oxysporum after 48 hr by microdilution method
Xanthomonas oryzae [17] = experiment: Antibacterial activity against Xanthomonas oryzae by microdilution method
Aspergillus niger [18] = experiment: Antifungal activity against Aspergillus niger after 48 hr by microdilution method
[19] = tested on: Xanthomonas euvesicatoria pv. sesami; experiment: Antibacterial activity against Xanthomonas campestris pv. sesami by microdilution method
Pseudomonas fluorescens [20] = experiment: Antibacterial activity against Pseudomonas fluorescens by microdilution method
Escherichia coli [21] = experiment: Antibacterial activity against Escherichia coli by microdilution method
Bacillus subtilis [22] = experiment: Antibacterial activity against Bacillus subtilis by microdilution method

Compound | zone of inhibition at 25 µg/disc (Penicillium sp. [1]) [mm] | zone of inhibition at 25 µg/disc (Fusarium verticillioides [2]) [mm] | zone of inhibition at 25 µg/disc (Trichoderma [3]) [mm] | zone of inhibition at 25 µg/disc (Fusarium oxysporum [4]) [mm] | zone of inhibition at 25 µg/disc (Xanthomonas oryzae [7]) [mm] | zone of inhibition at 25 µg/disc [8] [mm] | zone of inhibition at 25 µg/disc (Pseudomonas fluorescens [9]) [mm] | zone of inhibition at 25 µg/disc (Escherichia coli [10]) [mm] | zone of inhibition at 25 µg/disc (Bacillus subtilis [11]) [mm] | MIC (Penicillium sp. [12]) [µg/mL] | MIC (Fusarium verticillioides [13]) [µg/mL] | MIC (Trichoderma [14]) [µg/mL] | MIC (Aspergillus flavus [15]) [µg/mL] | MIC (Fusarium oxysporum [16]) [µg/mL] | MIC (Xanthomonas oryzae [17]) [µg/mL] | MIC (Aspergillus niger [18]) [µg/mL] | MIC [19] [µg/mL] | MIC (Pseudomonas fluorescens [20]) [µg/mL] | MIC (Escherichia coli [21]) [µg/mL] | MIC (Bacillus subtilis [22]) [µg/mL] | further results
CCc1ccc(CCOc2ccc(C3=NOC(Cc4ccc(O)c(OC)c4)C3)cc2)nc1 (stereo not drawn) | 9 | 11 | 15 | 13 | 12 | 13 | 18 | 14 | 12 | 11 (≈ 25.4 µM) | 10 (≈ 23.1 µM) | 13 (≈ 30.1 µM) | 15 (≈ 34.7 µM) | 12 (≈ 27.7 µM) | 13 (≈ 30.1 µM) | 16 (≈ 37 µM) | 10 (≈ 23.1 µM) | 12 (≈ 27.7 µM) | 14 (≈ 32.4 µM) | 18 (≈ 41.6 µM) | zone of inhibition at 25 µg/disc (Aspergillus flavus [5]): 10 mm; zone of inhibition at 25 µg/disc (Aspergillus niger [6]): 7 mm
NYSTATIN |  |  |  |  |  |  |  |  |  | 10 | 9 | 12 | 15 | 11 |  | 15 |  |  |  |  | inhibition zone (IZ) (Penicillium sp. [1]): 10 mm; inhibition zone (IZ) (Fusarium verticillioides [2]): 12 mm; inhibition zone (IZ) (Trichoderma [3]): 16 mm; inhibition zone (IZ) (Fusarium oxysporum [4]): 14 mm; inhibition zone (IZ) (Aspergillus flavus [5]): 10 mm; inhibition zone (IZ) (Aspergillus niger [6]): 8 mm
CCc1ccc(CCOc2ccc(C3=NOC(C(=O)OC)C3)cc2)nc1 (stereo not drawn) | 2 | 3 | 5 | 4 | 3 | 3 | 5 | 6 | 5 | 24 (≈ 67.7 µM) | 22 (≈ 62.1 µM) | 20 (≈ 56.4 µM) | 24 (≈ 67.7 µM) | 20 (≈ 56.4 µM) | 27 (≈ 76.2 µM) | 22 (≈ 62.1 µM) | 22 (≈ 62.1 µM) | 22 (≈ 62.1 µM) | 24 (≈ 67.7 µM) | 27 (≈ 76.2 µM) | zone of inhibition at 25 µg/disc (Aspergillus flavus [5]): 4 mm; zone of inhibition at 25 µg/disc (Aspergillus niger [6]): 3 mm
CN(C)[C@@H]1C(O)=C(C(N)=O)C(=O)[C@@]2(O)C(O)=C3C(=O)c4c(O)cccc4[C@@](C)(O)[C@H]3C[C@@H]12 [TETRACYCLINE] |  |  |  |  | 12 | 12 |  |  |  |  |  |  |  |  | 13 (≈ 29.3 µM) |  | 9 (≈ 20.3 µM) |  |  |  | 
CCc1ccc(CCOc2ccc(C3=NOC(CO)C3)cc2)nc1 (stereo not drawn) | 11 | 12 | 15 | 15 | 13 | 13 | 17 | 13 | 14 | 9 (≈ 27.6 µM) | 10 (≈ 30.6 µM) | 13 (≈ 39.8 µM) | 16 (≈ 49 µM) | 10 (≈ 30.6 µM) | 12 (≈ 36.8 µM) | 15 (≈ 46 µM) | 10 (≈ 30.6 µM) | 12 (≈ 36.8 µM) | 14 (≈ 42.9 µM) | 18 (≈ 55.1 µM) | zone of inhibition at 25 µg/disc (Aspergillus flavus [5]): 9 mm; zone of inhibition at 25 µg/disc (Aspergillus niger [6]): 8 mm
CCc1ccc(CCOc2ccc(C3=NOC(Cc4ccc5c(c4)OCO5)C3)cc2)nc1 (stereo not drawn) | 2 | 3 | 4 | 4 | 3 | 4 | 7 | 6 | 5 | 21 (≈ 48.8 µM) | 18 (≈ 41.8 µM) | 20 (≈ 46.5 µM) | 21 (≈ 48.8 µM) | 22 (≈ 51.1 µM) | 22 (≈ 51.1 µM) | 22 (≈ 51.1 µM) | 21 (≈ 48.8 µM) | 20 (≈ 46.5 µM) | 22 (≈ 51.1 µM) | 25 (≈ 58.1 µM) | zone of inhibition at 25 µg/disc (Aspergillus flavus [5]): 3 mm; zone of inhibition at 25 µg/disc (Aspergillus niger [6]): 3 mm
CCc1ccc(CCOc2ccc(C3=NOC(Cc4ccc(OC)c(OC)c4)C3)cc2)nc1 (stereo not drawn) | 8 | 10 | 13 | 12 | 9 | 10 | 14 | 15 | 14 | 12 (≈ 26.9 µM) | 11 (≈ 24.6 µM) | 15 (≈ 33.6 µM) | 17 (≈ 38.1 µM) | 13 (≈ 29.1 µM) | 15 (≈ 33.6 µM) | 18 (≈ 40.3 µM) | 11 (≈ 24.6 µM) | 15 (≈ 33.6 µM) | 15 (≈ 33.6 µM) | 20 (≈ 44.8 µM) | zone of inhibition at 25 µg/disc (Aspergillus flavus [5]): 7 mm; zone of inhibition at 25 µg/disc (Aspergillus niger [6]): 6 mm
CCOC(=O)C1CC(c2ccc(OCCc3ccc(CC)cn3)cc2)=NO1 (stereo not drawn) | 8 | 9 | 12 | 11 | 9 | 9 | 13 | 12 | 11 | 11 (≈ 29.9 µM) | 12 (≈ 32.6 µM) | 14 (≈ 38 µM) | 18 (≈ 48.9 µM) | 14 (≈ 38 µM) | 16 (≈ 43.4 µM) | 17 (≈ 46.1 µM) | 14 (≈ 38 µM) | 16 (≈ 43.4 µM) | 16 (≈ 43.4 µM) | 20 (≈ 54.3 µM) | zone of inhibition at 25 µg/disc (Aspergillus flavus [5]): 8 mm; zone of inhibition at 25 µg/disc (Aspergillus niger [6]): 6 mm
CN[C@@H]1[C@H](O[C@H]2[C@H](O[C@H]3[C@H](O)[C@@H](O)[C@H](N=C(N)N)[C@@H](O)[C@@H]3N=C(N)N)O[C@@H](C)[C@]2(O)C=O)O[C@@H](CO)[C@H](O)[C@H]1O [STREPTOMYCIN] |  |  |  |  |  |  | 17 | 14 | 13 |  |  |  |  |  |  |  |  | 12 (≈ 20.6 µM) | 13 (≈ 22.4 µM) | 19 (≈ 32.7 µM) | 
CCc1ccc(CCOc2ccc(C3=NOC(C#N)C3)cc2)nc1 (stereo not drawn) | 2 | 10 | 4 | 5 | 4 | 5 | 6 | 7 | 7 | 20 (≈ 62.2 µM) | 18 (≈ 56 µM) | 20 (≈ 62.2 µM) | 21 (≈ 65.3 µM) | 19 (≈ 59.1 µM) | 22 (≈ 68.5 µM) | 20 (≈ 62.2 µM) | 20 (≈ 62.2 µM) | 23 (≈ 71.6 µM) | 21 (≈ 65.3 µM) | 27 (≈ 84 µM) | zone of inhibition at 25 µg/disc (Aspergillus flavus [5]): 3 mm; zone of inhibition at 25 µg/disc (Aspergillus niger [6]): 2 mm
CCc1ccc(CCOc2ccc(C3=NOC(c4ccccc4)C3)cc2)nc1 (stereo not drawn) | 3 | 3 | 6 | 4 | 4 | 4 | 6 | 6 | 5 | 23 (≈ 61.8 µM) | 20 (≈ 53.7 µM) | 20 (≈ 53.7 µM) | 24 (≈ 64.4 µM) | 21 (≈ 56.4 µM) | 25 (≈ 67.1 µM) | 22 (≈ 59.1 µM) | 27 (≈ 72.5 µM) | 26 (≈ 69.8 µM) | 28 (≈ 75.2 µM) | 27 (≈ 72.5 µM) | zone of inhibition at 25 µg/disc (Aspergillus flavus [5]): 4 mm; zone of inhibition at 25 µg/disc (Aspergillus niger [6]): 3 mm
